Assay results from patent publication US11730712B2, “Functionalized long-chain hydrocarbon mono- and di-carboxylic acids and derivatives thereof, and their use for the prevention or treatment of disease” (ESPERVITA THERAPEUTICS, INC., priority 2021, dated 2023).

Tested on: Acyl-CoA synthetase activity in rat liver microsomes
Experiment: Synthesis of CoA derivatives in rat liver microsomes (LCMS)
Conditions: 1 mM substrate, 30 min sample vs 0 min
Procedure: Prior to the experiment a 1 mM working stock was created in primary hepatocyte media which was used to create the final dilution series of 0 (vehicle), 0.3, 1, 3, 10, and 30 μM. The final concentration of DMSO in all samples was <1%.
For initial validation of ACS activity using palmitate, 14C-palmitate was added (0.5 μCi/ml). Each sample was equilibrated at 37° C. while shaking for 10 min before the reaction was initiated by the addition of 0.04 mg of rat microsomal preparation (ThermoFisher Scientific. Cat #RTM-CPL, Lot #RT060-A) followed by incubation for 1, 3, 10, or 30 mins. Time 0 sample with no added microsomes was used as a control. The reaction was stopped by immediately placing the reaction tube on ice followed by the rapid addition of the reaction mixture to 2.25 ml ice-cold isopropanol/heptane/2M-sulfuric acid (40:10:1, vol/vol) in a 5 ml glass vial. […] For studies that involved measurement of 14C Palmitoyl-CoA formation, 200 μl of the lower aqueous phase was added to the 5 ml of scintillation fluid and the number of DPMs were determined by liquid scintillation counting for 5 minutes using a LS6500 Liquid Scintillation Counter (Beckman Coulter). […]
The reaction products were ionized by electrospray ion source (ESI) in positive mode. […] The resulting mass spectra were analyzed using the Xcalibur 2.1 Qualitative software package. […]

Structure (SMILES): CC(C)(CCCc1ccc(CCCC(C)(C)C(=O)SCCNC(=O)CCNC(=O)[C@H](O)C(C)(C)COP(=O)(O)OP(=O)(O)OC[C@H]2O[C@@H](n3cnc4c(N)ncnc43)[C@H](O)[C@@H]2OP(=O)(O)O)cc1)C(=O)O [III-1-CoA, 5-[4-(4-Carboxy-4-methylpentyl)-phenyl]-2,2-dimethylpentanoic acid Coenzyme A ester]
- formation of the CoA derivative, detection by LCMS: could not be confirmed using fragmentation analysis
